Test results: patent US10023555B2, “NSAIDs derivatives and uses thereof” (Research Foundation of The City University of New York, priority 2013, dated 2018)
Read-outs that look alike come from different tables or passages of the source.

What was measured:
Type in all cases: cell-based
[1] = test system: SW-480 human colon adenocarcinoma cells; test: MTT cell growth inhibition, SW480; conditions: for IC50: Homo sapiens, read-out: IC50 for cell growth inhibition; for Enhanced Potency: ratio of IC50 NSAID/POSH-NSAID, fold-enhancement over parent, SW480
[2] = test system: HCT-15 human colon adenocarcinoma cells; test: MTT cell growth inhibition, HCT 15; conditions: for IC50: Homo sapiens, read-out: IC50 for cell growth inhibition; for Enhanced Potency: ratio of IC50 NSAID/POSH-NSAID, fold-enhancement over parent, HCT 15
[3] = test system: HT-29 human colon adenocarcinoma cells; test: MTT cell growth inhibition, HT-29; conditions: for IC50: Homo sapiens, read-out: IC50 for cell growth inhibition; for Enhanced Potency: ratio of IC50 NSAID/POSH-NSAID, fold-enhancement over parent, HT-29
[4] = test system: LNCAP human prostate cancer cells; test: MTT cell growth inhibition, LNCAP; conditions: 24 h; for IC50: Homo sapiens, read-out: IC50 for cell growth inhibition; for Enhanced Potency: ratio of IC50 NSAID/POSH-NSAID, fold-enhancement over parent, LNCAP
[5] = test system: A549 human lung cancer cells; test: MTT cell growth inhibition, A549; conditions: for IC50: Homo sapiens, read-out: IC50 for cell growth inhibition; for Enhanced Potency: ratio of IC50 NSAID/POSH-NSAID, fold-enhancement over parent, A549
[6] = test system: BxPC-3 human pancreatic cancer cells; test: MTT cell growth inhibition, BxPC3; conditions: for IC50: Homo sapiens, read-out: IC50 for cell growth inhibition; for Enhanced Potency: ratio of IC50 NSAID/POSH-NSAID, fold-enhancement over parent, BxPC3
[7] = test system: Jurkats human leukemia cells; test: MTT cell growth inhibition, Jurkat; conditions: 24 h; for IC50: Homo sapiens, read-out: IC50 for cell growth inhibition; for Enhanced Potency: ratio of IC50 NSAID/POSH-NSAID, fold-enhancement over parent
[8] = test system: MIA PaCa-2 human pancreatic cancer cells; test: MTT cell growth inhibition, MIAPaCa2; conditions: for IC50: Homo sapiens, read-out: IC50 for cell growth inhibition; for Enhanced Potency: ratio of IC50 NSAID/POSH-NSAID, fold-enhancement over parent, MIAPaCa2
[9] = Prostate LNCAP, mean ± SEM of three determinations
[10] = 24 h, Lung A549, mean ± SEM of three determinations
[11] = BXPC-3, 24 h, Pancreas BxPC3, mean ± SEM of three determinations
[12] = Leukemia Jurkat, mean ± SEM of three determinations
[13] = MIA PaCa-2, 24 h, Pancreas MIAPaCa2, mean ± SEM of three determinations

| Compound | IC50 [4, 9] | IC50 [5, 10] | IC50 [6, 11] | IC50 [7, 12] | IC50 [8, 13] | IC50 ([1]; SW480, 24 h) | Enhanced Potency ([1]; 24 h) | IC50 ([2]; HCT-15, 24 h) | Enhanced Potency ([2]; 24 h) | IC50 ([3]; HT-29, 24 h) | Enhanced Potency ([3]; 24 h) | IC50 ([4]; LNCaP) | Enhanced Potency [4] | IC50 ([5]; A549, 24 h) | Enhanced Potency ([5]; 24 h) | IC50 ([6]; BXPC-3, 24 h) | Enhanced Potency ([6]; 24 h) | IC50 ([7]; Jurkat) | Enhanced Potency ([7]; Jurkat) | IC50 ([8]; MIA PaCa-2, 24 h) | other results |
| --- | --- | --- | --- | --- | --- | --- | --- | --- | --- | --- | --- | --- | --- | --- | --- | --- | --- | --- | --- | --- | --- |
| CC(=O)Oc1ccccc1C(=O)O [ASA, aspirin, reference compound] | > 5000 µM | > 5000 µM | > 5000 µM | > 5000 µM | > 5000 µM |  |  |  |  |  |  |  |  |  |  |  |  |  |  |  | IC50 ([1]; 24 h, Colon SW480, mean ± SEM of three determinations): > 5000 µM; IC50 ([2]; 24 h, Colon HCT 15, mean ± SEM of three determinations): > 5000 µM; IC50 ([3]; 24 h, Colon HT-29, mean ± SEM of three determinations): > 5000 µM |
| COc1ccc2cc([C@H](C)C(=O)O)ccc2c1 [NAP, naproxen, reference compound] | 2990 µM | 2650 µM | 2600 µM | 2380 µM | 3200 µM |  |  |  |  |  |  |  |  |  |  |  |  |  |  |  |  |
| CCOP(=O)(OCC)OCCSSCCOC(=O)c1ccccc1OC(C)=O [POSH-ASA] |  |  |  |  |  | 0.092 µM | >50,000 | 0.075 µM | >65,000 | 0.082 µM | >60,000 | 0.075 µM | >65,000 | 0.083 µM | >60,000 | 0.075 µM | >65,000 | 0.22 µM | >20,000 | 0.082 µM | Enhanced Potency ([8]; 24 h): >60,000 |
| CCOP(=O)(OCC)OCCSSCCOC(=O)C(C)c1ccc2cc(OC)ccc2c1 (stereo not drawn) [POSH-NAP] |  |  |  |  |  | 0.18 µM | ~17,000 | 0.12 µM | ~24,000 | 0.15 µM | ~18,000 | 0.13 µM | ~25,000 | 0.16 µM | ~16,000 | 0.1 µM | ~26,000 | 0.17 µM | ~14,000 | 0.088 µM | Enhanced Potency ([8]; 24 h): ~36,000 |
